Source: EP2949319A1, “PHARMACEUTICAL COMPOSITIONS COMPRISING AN ACTIVE AGENT” (Galenicum Health S.L., priority 2014, dated 2015)
Converted amounts (≈) assume the structure as drawn.

Legend:
[1] = Dissolution of the active agent in the capsule fill (glycerol monocaprylocaprate, BHT); type: physicochemical; conditions: glycerol monocaprylocaprate and BHT, 20-23 °C, stirred
Excerpt: Another advantage of the process as herein disclosed is that it is highly reproducible and robust independently of the water content of the active agent. […] However, when the active agent has a water content higher than 0.05% measured by Karl Fischer titration, the components of the fill are completely dissolved at the same range of temperatures. Furthermore, the inventors have been able to establish an optimum range of working temperatures able to obtain a fill solution completely dissolved homogeneously with active agents with a water content higher than 0.05 % w/w.
• Glycerol monocaprylocaprate was added to a stainless steel tank equipped with cooling jacket to keep it at a temperature of 20-23 °C. It was stirred until completely dissolved. • Butylhydroxytoluene (BHT) was added to the tank and stirred until completely dissolved. • Finally dutasteride anhydrous was added to the tank. • The resulting solution was kept at a range of temperature of 20-23 °C. […] Water content of the active agent and the range of temperatures were studied to avoid dissolution problems.

[2] = cited from earlier work

Compound	dissolution in the capsule fill solution [1]	solubility in water [2] [ng/mL]
C[C@]12C=CC(=O)N[C@@H]1CC[C@@H]1[C@@H]2CC[C@]2(C)[C@@H](C(=O)Nc3cc(C(F)(F)F)ccc3C(F)(F)F)CC[C@@H]12 [dutasteride anhydrous, 17-beta-N-[2,5-bis(trifluoromethyl)]phenylcarbamoyl-4-aza-5-alpha-androst-1-en-3-one]	not possible to obtain a completely dissolved solution	–
C[C@]12C=CC(=O)N[C@@H]1CC[C@@H]1[C@@H]2CC[C@]2(C)[C@@H](C(=O)Nc3cc(C(F)(F)F)ccc3C(F)(F)F)CC[C@@H]12 [Dutasteride, 17-beta-N-[2,5-bis(trifluoromethyl)]phenylcarbamoyl-4-aza-5-alpha-androst-1-en-3-one]	–	0.38 (≈ 0.719 nM)
